This passage reports IC50 results from patent US9884063B2, “Amido-substituted azole compounds” (Bayer Pharma Aktiengesellschaft, priority 2014, dated 2018).

One assay has as its target T1, TNKS2 (Homo sapiens, UniProt Q9H2K2).
T1 sequence (Q9H2K2 1-1166): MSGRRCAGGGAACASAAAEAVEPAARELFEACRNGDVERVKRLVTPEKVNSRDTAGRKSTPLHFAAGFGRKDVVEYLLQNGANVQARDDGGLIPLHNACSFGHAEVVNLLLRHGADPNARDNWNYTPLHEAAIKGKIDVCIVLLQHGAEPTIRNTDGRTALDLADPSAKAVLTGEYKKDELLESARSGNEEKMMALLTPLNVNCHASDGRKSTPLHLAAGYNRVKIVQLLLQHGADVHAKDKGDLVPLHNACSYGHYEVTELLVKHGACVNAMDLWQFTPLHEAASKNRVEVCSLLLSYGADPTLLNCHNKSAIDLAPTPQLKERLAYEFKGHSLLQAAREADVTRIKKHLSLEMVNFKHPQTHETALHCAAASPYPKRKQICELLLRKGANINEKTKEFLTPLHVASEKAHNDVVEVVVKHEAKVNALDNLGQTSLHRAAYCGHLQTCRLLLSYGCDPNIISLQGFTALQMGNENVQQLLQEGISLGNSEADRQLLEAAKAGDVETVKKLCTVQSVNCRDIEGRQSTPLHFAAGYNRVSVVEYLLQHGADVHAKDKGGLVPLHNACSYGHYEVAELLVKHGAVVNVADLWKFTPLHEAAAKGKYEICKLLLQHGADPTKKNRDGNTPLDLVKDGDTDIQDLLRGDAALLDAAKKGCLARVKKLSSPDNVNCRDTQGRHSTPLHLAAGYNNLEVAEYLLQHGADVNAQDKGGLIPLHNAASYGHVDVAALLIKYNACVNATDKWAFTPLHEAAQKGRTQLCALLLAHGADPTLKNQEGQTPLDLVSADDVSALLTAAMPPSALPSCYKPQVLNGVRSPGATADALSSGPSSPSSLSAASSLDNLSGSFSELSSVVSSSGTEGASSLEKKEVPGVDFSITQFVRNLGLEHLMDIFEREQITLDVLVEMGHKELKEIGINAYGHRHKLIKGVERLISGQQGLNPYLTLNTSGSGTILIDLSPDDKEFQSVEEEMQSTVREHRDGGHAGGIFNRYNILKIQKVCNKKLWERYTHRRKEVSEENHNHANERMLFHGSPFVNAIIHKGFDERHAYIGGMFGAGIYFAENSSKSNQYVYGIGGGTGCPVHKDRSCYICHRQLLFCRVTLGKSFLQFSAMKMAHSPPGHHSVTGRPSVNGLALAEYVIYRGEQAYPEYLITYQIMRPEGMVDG
The experiment in a line: Modified TNKS2 Assay 3 (BPS kit #80578, biotin-NAD+, 96 well). The format is biochemical. To be noted: human TNKS2, BPS kit #80578, 96 well. Here is the method: (§1) The potency of the compounds against human TNKS2 according to the invention was assessed using a commercially available biotin/streptavidin binding assay kits from BPS Bioscience, San Diego, USA (Catalog #80578 for TNKS2). The incorporation of a biotin-labeled NAD+ during the […] catalyzed ribosylation of a suitable protein substrate was detected using with a streptavidin-HRP coupled chemi-luminescent readout. The intensity of the readout signal is proportional to the incorporated NAD^+. Inhibition of TNKS2 leads to a decreased incorporation of NAD^+ and consequently to a lower readout signal intensity in the corresponding TNKS2 assays. The concentration of a test compound that inhibits the enzyme activity by 50% (corresponds to half of the normed readout signal intensity) is reported as IC50. The assay conducted in a 96 well MTP format according to the manufacturer's protocol and using a BMG Pherastar MTP reader [BMG-Labtech, Offenburg, Germany].

The test system of assay [1] is wildtype Wnt signaling cascade. Put plainly: HEK293 TOP Assay (Super TopFlash luciferase reporter, Wnt-3a stimulated). Format: cell-based. To be noted: Homo sapiens, HEK293 TOP reporter cell line, Wnt-3a at EC50, 16 hours incubation, compound dilution series 50 μM to 15 nM. Put shortly:
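HEK293 cells stably carrying Super TopFlash (TOP) or FOP reporter, stimulated with recombinant human Wnt-3a (2500–5 ng/ml, two-fold steps). Both lines incubated in parallel with compound from 50 μM to 15 nM (3.16-fold) in CAFTY buffer pH 7.4 with 2 mM Ca2+ and 0.01% BSA; selectivity judged TOP vs FOP.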
A general note: A reporter such as luciferase makes a cellular process visible.

The subject of assay [2] is HEK293 FOP control reporter cell line. The experiment in a line: HEK293 FOP Assay (FOP control vector luciferase reporter). The conditions noted are these: Homo sapiens, HEK293 FOP control reporter cell line, 16 hours incubation, compound dilution series 50 μM to 15 nM. The format is cell-based. Put shortly:
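Stable HEK293 line carrying the FOP vector (randomized, non-functional TCF sites; Geneticin-selected) was run in parallel with the TOP line. Cells were plated 24 h ahead at 10000/well and given recombinant human Wnt-3a at 2500–5 ng/ml. Compounds were tested at 50 μM–15 nM (3.16-fold steps) in CAFTY buffer, pH 7.4, with 2 mM Ca2+ and 0.01% BSA.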

In the next assay the target is T2, TNKS1 (Homo sapiens, UniProt O95271).
T2 sequence (O95271 1-1327): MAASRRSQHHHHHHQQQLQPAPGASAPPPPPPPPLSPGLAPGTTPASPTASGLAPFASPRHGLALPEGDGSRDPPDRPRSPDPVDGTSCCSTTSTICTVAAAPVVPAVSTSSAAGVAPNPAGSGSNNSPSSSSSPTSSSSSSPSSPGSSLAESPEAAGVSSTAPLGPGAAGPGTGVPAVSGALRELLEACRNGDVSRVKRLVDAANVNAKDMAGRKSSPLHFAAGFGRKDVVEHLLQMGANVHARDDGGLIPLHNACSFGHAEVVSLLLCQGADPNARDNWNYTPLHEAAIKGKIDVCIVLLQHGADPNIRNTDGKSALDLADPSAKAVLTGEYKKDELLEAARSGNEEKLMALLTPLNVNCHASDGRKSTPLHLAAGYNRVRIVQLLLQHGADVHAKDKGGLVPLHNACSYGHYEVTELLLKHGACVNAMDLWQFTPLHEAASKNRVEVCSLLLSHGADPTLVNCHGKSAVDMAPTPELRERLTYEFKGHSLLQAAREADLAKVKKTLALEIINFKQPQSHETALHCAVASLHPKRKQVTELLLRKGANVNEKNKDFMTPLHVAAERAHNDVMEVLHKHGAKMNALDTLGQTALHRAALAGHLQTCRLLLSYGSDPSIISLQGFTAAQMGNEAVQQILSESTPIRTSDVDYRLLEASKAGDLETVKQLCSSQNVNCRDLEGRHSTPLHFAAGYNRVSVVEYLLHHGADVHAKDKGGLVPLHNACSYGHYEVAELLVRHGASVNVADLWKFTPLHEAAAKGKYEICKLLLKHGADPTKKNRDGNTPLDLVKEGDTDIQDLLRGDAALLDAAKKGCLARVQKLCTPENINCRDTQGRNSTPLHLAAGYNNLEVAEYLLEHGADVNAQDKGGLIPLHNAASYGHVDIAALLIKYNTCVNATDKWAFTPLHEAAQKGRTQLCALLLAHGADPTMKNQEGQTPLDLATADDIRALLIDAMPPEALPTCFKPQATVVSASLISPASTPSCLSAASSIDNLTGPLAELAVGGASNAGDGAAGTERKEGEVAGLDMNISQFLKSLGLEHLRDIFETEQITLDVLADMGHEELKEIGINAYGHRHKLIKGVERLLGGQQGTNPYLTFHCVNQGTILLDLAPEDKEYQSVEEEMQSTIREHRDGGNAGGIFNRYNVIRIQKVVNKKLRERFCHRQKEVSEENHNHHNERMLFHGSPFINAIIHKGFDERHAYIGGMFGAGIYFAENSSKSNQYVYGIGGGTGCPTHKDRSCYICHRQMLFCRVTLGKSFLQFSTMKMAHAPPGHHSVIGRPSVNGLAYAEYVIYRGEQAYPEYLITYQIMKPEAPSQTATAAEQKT
Put plainly: Modified TNKS1 Assay 3 (BPS kit #80573, biotin-NAD+, 96 well). Format: biochemical. The conditions noted are these: human TNKS1, BPS kit #80573, 96 well. Here is the method:
as §1, with “against human TNKS1 according to” for “against human TNKS2 according to”, “USA (Catalog #80573 for TNKS1).” for “USA (Catalog #80578 for TNKS2).”, “#80573 for TNKS1). The incorporation” for “#80578 for TNKS2). The incorporation”, “Inhibition of TNKS1 leads to” for “Inhibition of TNKS2 leads to”, “the corresponding TNKS1 assays. The” for “the corresponding TNKS2 assays. The”, “The assay was conducted in” for “The assay conducted in”

Counter-ions that a name gives are not always drawn.

Take `CC(C)(CNC(=O)c1[nH]cnc1C(=O)Nc1ccc(NC(=O)c2ccc(F)cc2Cl)cc1)N1CCCCC1` [Example 159, N^4-{4-[(2-chloro-4-fluorobenzoyl)amino]phenyl}-N^5-[2-methyl-2-(piperidin-1-yl)propyl]-1H-imidazole-4,5-dicarboxamide]: the IC50 (as a rule, the concentration needed to halve the response being measured) turned out to be 0.002 µM against TNKS2 and 0.09 µM in assay [1] (HEK293, 16 h).
The matching figures for `CC(CNC(=O)c1[nH]cnc1C(=O)Nc1ccc(NC(=O)c2ccc(F)cc2Cl)cc1)N1CCN(C)CC1` (stereo not shown) [Example 185, N^4-{4-[(2-chloro-4-fluorobenzoyl)amino]phenyl}-N^5-[2-(4-methylpiperazin-1-yl)propyl]-1H-imidazole-4,5-dicarboxamide]: 0.02 µM and 0.2 µM.
Take `CN1CCC(NC(=O)c2nc[nH]c2C(=O)Nc2ccc(NC(=O)c3ccc(F)cc3Cl)cc2)CC1` [Example 414, N^5-{4-[(2-chloro-4-fluorobenzoyl)amino]phenyl}-N^4-(1-methylpiperidin-4-yl)-1H-imidazole-4,5-dicarboxamide]: the IC50 in assay [2] was determined as 33 µM; on TNKS1, 0.05 µM; in assay [1] (HEK293, 16 h) it was 0.27 µM.
For the molecule `CN1CC2(C1)CN(C(=O)c1nc[nH]c1C(=O)Nc1ccc(NC(=O)c3cc(F)c(F)cc3Cl)cc1)C2` [Example 50, N N-{4-[(2-chloro-4,5-difluorobenzoyl)amino]phenyl}-4-[(6-methyl-2,6-diazaspiro[3.3]hept-2-yl)carbonyl]-1H-imidazole-5-carboxamide], the IC50 was 13 µM in assay [2]; 0.13 µM on TNKS1; 0.12 µM in assay [1] (HEK293, 16 h).
Take `CN(C)CC(C)(C)CNC(=O)c1nc[nH]c1C(=O)Nc1ccc(NC(=O)c2ccc(F)cc2Cl)cc1` [Example 396, N^5-{4-[(2-chloro-4-fluorobenzoyl)amino]phenyl}-N^4-[3-(dimethylamino)-2,2-dimethylpropyl]-1H-imidazole-4,5-dicarboxamide]: the IC50 in assay [2] is 25 µM; on TNKS1, 0.18 µM; in assay [1] (HEK293, 16 h), 0.34 µM.
As to `CN(C)CCNC(=O)c1nc[nH]c1C(=O)Nc1ccc(NC(=O)c2ccc(F)cc2Cl)nc1` [Example 109, N^5-{6-[(2-chloro-4-fluorobenzoyl)amino]pyridin-3-yl}-N^4-[2-(dimethylamino)ethyl]-1H-imidazole-4,5-dicarboxamide], the IC50 in assay [2] was found to be 43 µM; against TNKS1 it was 0.001 µM; in assay [1] (HEK293, 16 h) it was 0.14 µM.
`CN(C)CCCCCNC(=O)c1nc[nH]c1C(=O)Nc1ccc(NC(=O)c2ccc(F)cc2Cl)cc1` [Example 378, N^5-{4-[(2-chloro-4-fluorobenzoyl)amino]phenyl}-N^4-[5-(dimethylamino)pentyl]-1H-imidazole-4,5-dicarboxamide]: the IC50 in assay [2] was determined as 27 µM; on TNKS1, 0.06 µM; in assay [1] (HEK293, 16 h), 0.23 µM.
Consider `CC(C)(N)CCNC(=O)c1[nH]cnc1C(=O)Nc1ccc(NC(=O)c2ccccc2Cl)cc1` [Example 283, N^5-(3-amino-3-methylbutyl)-N^4-{4-[(2-chlorobenzoyl)amino]phenyl}-1H-imidazole-4,5-dicarboxamide hydrochloride salt], for which the IC50 in assay [2] (HEK293, 16 h) was 50 µM; on TNKS1 it was 0.11 µM; in assay [1] it was 0.84 µM.
With `CC1CCCCN1CCCNC(=O)c1nc[nH]c1C(=O)Nc1ccc(NC(=O)c2ccc(F)cc2Cl)cc1` (stereo not shown) [Example 386, N^5-{4-[(2-chloro-4-fluorobenzoyl)amino]phenyl}-N^4-[3-(2-methylpiperidin-1-yl)propyl]-1H-imidazole-4,5-dicarboxamide], the IC50 in assay [2] was found to be 15 µM; against TNKS1, 0.06 µM; in assay [1] (HEK293, 16 h), 0.46 µM.
With `O=C(Nc1ccc(NC(=O)c2[nH]cnc2C(=O)NCCCCCN2CCCC2)cc1)c1ccc(F)cc1Cl` [Example 406, N^5-{4-[(2-chloro-4-fluorobenzoyl)amino]phenyl}-N^4-[5-(pyrrolidin-1-yl)pentyl]-1H-imidazole-4,5-dicarboxamide], the IC50 in assay [2] came to 26 µM; on TNKS1, 0.07 µM; in assay [1] (HEK293, 16 h), 0.35 µM.
